Laboratory results: patent US20030166601A1, “Novel colloid synthetic vectors for gene therapy” (priority 1999, published 2003)

System: CD-1 mice
Test: Luciferase expression in organs after intravenous injection of pCILuc complexes
Format: in vivo
Conditions: for Luciferase RLU/20 μl lysate heart / Luciferase RLU/20 μl lysate kidney / Luciferase RLU/20 μl lysate liver / Luciferase RLU/20 μl lysate lung / Luciferase RLU/20 μl lysate spleen: 40 μg pCILuc i.v., 5 h; for Luciferase activity heart / Luciferase activity kidney / Luciferase activity liver / Luciferase activity lung / Luciferase activity spleen: Table 5
Experimental: Substituted aminoethanols (cationic compounds) were prepared as described in Examples 1-34. Their gene delivery ability was studied in vivo by intravenous injection (Table 1 and 2) using a standard method. The preparations were administered via tail vein injection to mice and gene expression determined after 5 hours. Female CD-1 mice, 13-15 g, were purchased from Charles River Inc. Forty microgram of pCILuc complexed with GC lipids or GC lipid:Chol dispersion as indicated weight ratios. After 5 h, mice were sacrificed and organs were collected. Organs were homogenized in 0.5 ml of lysis buffer and 20 μl of supernatant was used for luciferase assay. Luciferase activity was represented as a mean of relative light unit (RLU) of four mice. The lipids were either used alone or combined with cholesterol and complexed with a luciferase reporter gene plasmid by a standard procedure at a range of weight and charge ratios. For the in vivo screen, 40 μg of pCILuc was complexed with the formulation and injected into the mice.
All compounds were evaluated for in vivo activity. Two critical factors were examined, formulation with or without cholesterol and the ratio of cationic lipid to DNA. Cholesterol was tested at 1:1 mole ratio of lipid:chol. The studies were performed with a dose of 40 μg of pCILuc complexed with cationic lipid or lipid: Chol (1:1 mole ratio) injected i.v. into CD-1 mice and then luciferase activity in different organs determined 5 h later. The first evaluation included all of 14 GC-lipids at weight ratios of 2 and 10 (GC lipid to DNA). It was performed by four separated experiments. Each time cationic liposome DOTAP:Chol was used as a standard control.
Measurements were repeated with lipids GC-030, GC-034 and GC-029 at wider weight ratios than the first experiment. Luciferase activity is represented as a mean of relative light unit (RLU) of four mice. WR means weight ratio of GC lipids to DNA. The transfection activity was represented by luciferase activity RLU/organ. […] The transfection activity increased with the increased weight ratio (GC lipids to DNA). Inclusion of cholesterol can change the biodistribution of gene expression in the different organs examined. […] However this function of cholesterol was not seen with GC-034.

CC(C)CCC[C@@H](C)[C@H]1CC[C@H]2[C@@H]3CC=C4C[C@@H](OC(=O)NCCNC(=O)[C@@H](N)CCCN)CC[C@]4(C)[C@H]3CC[C@]12C [GC-003]
Luciferase RLU/20 μl lysate heart (WR 2): 37 RLU/20 μl lysate
Luciferase RLU/20 μl lysate kidney (WR 2): 38 RLU/20 μl lysate
Luciferase RLU/20 μl lysate liver (WR 2): 33 RLU/20 μl lysate
Luciferase RLU/20 μl lysate lung (WR 2): 37 RLU/20 μl lysate
Luciferase RLU/20 μl lysate heart (WR 10): 39 RLU/20 μl lysate
Luciferase RLU/20 μl lysate kidney (WR 10): 40 RLU/20 μl lysate
Luciferase RLU/20 μl lysate liver (WR 10): 73 RLU/20 μl lysate
Luciferase RLU/20 μl lysate lung (WR 10): 69 RLU/20 μl lysate
Luciferase RLU/20 μl lysate spleen (WR 10, spleen): 65 RLU/20 μl lysate
Luciferase RLU/20 μl lysate spleen (WR (lipid to DNA) 2, spleen): 36 RLU/20 μl lysate

CCCCCCCCCCCCCCCCCCN(CCCCCCCCCCCCCCCCCC)C(=O)CNC(=O)[C@H](CCCN(CCCN)CCCN)N(CCCN)CCCN.O=C(O)C(F)(F)F.O=C(O)C(F)(F)F.O=C(O)C(F)(F)F.O=C(O)C(F)(F)F.O=C(O)C(F)(F)F.O=C(O)C(F)(F)F [GC-016]
Luciferase RLU/20 μl lysate heart (WR 2): 44 RLU/20 μl lysate
Luciferase RLU/20 μl lysate kidney (WR 2): 41 RLU/20 μl lysate
Luciferase RLU/20 μl lysate liver (WR 2): 38 RLU/20 μl lysate
Luciferase RLU/20 μl lysate lung (WR 2): 45 RLU/20 μl lysate
Luciferase RLU/20 μl lysate heart (WR 10): 40 RLU/20 μl lysate
Luciferase RLU/20 μl lysate kidney (WR 10): 40 RLU/20 μl lysate
Luciferase RLU/20 μl lysate liver (WR 10): 95 RLU/20 μl lysate
Luciferase RLU/20 μl lysate lung (WR 10): 67 RLU/20 μl lysate
Luciferase RLU/20 μl lysate spleen (WR 10, spleen): 230 RLU/20 μl lysate
Luciferase RLU/20 μl lysate spleen (WR (lipid to DNA) 2, spleen): 40 RLU/20 μl lysate

CCCCCCCCCCCCCCCCCCN(CCCCCCCCCCCCCCCCCC)C(=O)[C@H](CSSC[C@H](NC(=O)[C@@H](N)CCCN)C(=O)N(CCCCCCCCCCCCCCCCCC)CCCCCCCCCCCCCCCCCC)NC(=O)[C@@H](N)CCCN.O=C(O)C(F)(F)F.O=C(O)C(F)(F)F.O=C(O)C(F)(F)F.O=C(O)C(F)(F)F [GC-025]
Luciferase RLU/20 μl lysate heart (WR 2): 33 RLU/20 μl lysate
Luciferase RLU/20 μl lysate kidney (WR 2): 25 RLU/20 μl lysate
Luciferase RLU/20 μl lysate liver (WR 2): 38 RLU/20 μl lysate
Luciferase RLU/20 μl lysate lung (WR 2): 40 RLU/20 μl lysate
Luciferase RLU/20 μl lysate heart (WR 10): 27 RLU/20 μl lysate
Luciferase RLU/20 μl lysate kidney (WR 10): 28 RLU/20 μl lysate
Luciferase RLU/20 μl lysate liver (WR 10): 27 RLU/20 μl lysate
Luciferase RLU/20 μl lysate lung (WR 10): 30 RLU/20 μl lysate
Luciferase RLU/20 μl lysate spleen (WR 10, spleen): 32 RLU/20 μl lysate
Luciferase RLU/20 μl lysate spleen (WR (lipid to DNA) 2, spleen): 46 RLU/20 μl lysate

CCCCCCCCCCCCCCCCCCN(CCCCCCCCCCCCCCCCCC)C(=O)C(CSSCC(NC(=O)C(CCCNCCCN)NCCCN)C(=O)N(CCCCCCCCCCCCCCCCCC)CCCCCCCCCCCCCCCCCC)NC(=O)C(CCCNCCCN)NCCCN.O=C(O)C(F)(F)F.O=C(O)C(F)(F)F.O=C(O)C(F)(F)F.O=C(O)C(F)(F)F.O=C(O)C(F)(F)F.O=C(O)C(F)(F)F.O=C(O)C(F)(F)F.O=C(O)C(F)(F)F (centres unmarked) [GC-026]
Luciferase RLU/20 μl lysate heart (WR 2): 42 RLU/20 μl lysate
Luciferase RLU/20 μl lysate kidney (WR 2): 41 RLU/20 μl lysate
Luciferase RLU/20 μl lysate liver (WR 2): 39 RLU/20 μl lysate
Luciferase RLU/20 μl lysate lung (WR 2): 40 RLU/20 μl lysate
Luciferase RLU/20 μl lysate heart (WR 10): 0 RLU/20 μl lysate
Luciferase RLU/20 μl lysate kidney (WR 10): 0 RLU/20 μl lysate
Luciferase RLU/20 μl lysate liver (WR 10): 0 RLU/20 μl lysate
Luciferase RLU/20 μl lysate lung (WR 10): 0 RLU/20 μl lysate
Luciferase RLU/20 μl lysate spleen (WR 10, spleen): 0 RLU/20 μl lysate
Luciferase RLU/20 μl lysate spleen (WR (lipid to DNA) 2, spleen): 40 RLU/20 μl lysate

CCCCCCCCCCCCCCCCCC(CCCCCCCCCCCCCCCCC)OC(=O)NCCNC(=O)[C@H](CCCNCCCN)NCCCN.O=C(O)C(F)(F)F.O=C(O)C(F)(F)F.O=C(O)C(F)(F)F.O=C(O)C(F)(F)F [GC-029]
Luciferase RLU/20 μl lysate heart (WR 2): 42 RLU/20 μl lysate
Luciferase activity heart (WR 2): 933 RLU/organ
Luciferase RLU/20 μl lysate kidney (WR 2): 34 RLU/20 μl lysate
Luciferase activity kidney (WR 2): 1,000 RLU/organ
Luciferase RLU/20 μl lysate liver (WR 2): 31 RLU/20 μl lysate
Luciferase activity liver (WR 2): 825 RLU/organ
Luciferase RLU/20 μl lysate lung (WR 2): 41 RLU/20 μl lysate
Luciferase activity lung (WR 2): 967 RLU/organ
Luciferase activity spleen (WR 2, spleen): 908 RLU/organ
Luciferase RLU/20 μl lysate heart (WR 10): 34 RLU/20 μl lysate
Luciferase activity heart (WR 10): 858 RLU/organ
Luciferase RLU/20 μl lysate kidney (WR 10): 42 RLU/20 μl lysate
Luciferase activity kidney (WR 10): 808 RLU/organ
Luciferase RLU/20 μl lysate liver (WR 10): 65 RLU/20 μl lysate
Luciferase activity liver (WR 10): 1,408 RLU/organ
Luciferase RLU/20 μl lysate lung (WR 10): 72 RLU/20 μl lysate
Luciferase activity lung (WR 10): 1,017 RLU/organ
Luciferase RLU/20 μl lysate spleen (WR 10, spleen): 196 RLU/20 μl lysate
Luciferase activity spleen (WR 10, spleen): 1,992 RLU/organ
Luciferase RLU/20 μl lysate spleen (WR (lipid to DNA) 2, spleen): 31 RLU/20 μl lysate

CCCCCCCCCCCCCCCCCC(CCCCCCCCCCCCCCCCC)OC(=O)NCCNC(=O)[C@@H](N)CCCN.O=C(O)C(F)(F)F.O=C(O)C(F)(F)F [GC-030]
Luciferase activity heart (WR 1): 1,675 RLU/organ
Luciferase activity kidney (WR 1): 1,392 RLU/organ
Luciferase activity liver (WR 1): 3,642 RLU/organ
Luciferase activity lung (WR 1): 3,308 RLU/organ
Luciferase activity spleen (WR 1, spleen): 23,308 RLU/organ
Luciferase RLU/20 μl lysate heart (WR 2): 48 RLU/20 μl lysate
Luciferase activity heart (WR 2): 1,367 RLU/organ
Luciferase RLU/20 μl lysate kidney (WR 2): 51 RLU/20 μl lysate
Luciferase activity kidney (WR 2): 1,458 RLU/organ
Luciferase RLU/20 μl lysate liver (WR 2): 70 RLU/20 μl lysate
Luciferase activity liver (WR 2): 3,417 RLU/organ
Luciferase RLU/20 μl lysate lung (WR 2): 88 RLU/20 μl lysate
Luciferase activity lung (WR 2): 1,600 RLU/organ
Luciferase activity spleen (WR 2, spleen): 73,442 RLU/organ
Luciferase activity heart (WR 6): 817 RLU/organ
Luciferase activity kidney (WR 6): 792 RLU/organ
Luciferase activity liver (WR 6): 1,550 RLU/organ
Luciferase activity lung (WR 6): 8,808 RLU/organ
Luciferase activity spleen (WR 6, spleen): 38,058 RLU/organ
Luciferase RLU/20 μl lysate heart (WR 10): 67 RLU/20 μl lysate
Luciferase activity heart (WR 10): 3,450 RLU/organ
Luciferase RLU/20 μl lysate kidney (WR 10): 105 RLU/20 μl lysate
Luciferase activity kidney (WR 10): 1,367 RLU/organ
Luciferase RLU/20 μl lysate liver (WR 10): 1,093 RLU/20 μl lysate
Luciferase activity liver (WR 10): 114,425 RLU/organ
Luciferase RLU/20 μl lysate lung (WR 10): 1,396 RLU/20 μl lysate
Luciferase activity lung (WR 10): 35,117 RLU/organ
Luciferase RLU/20 μl lysate spleen (WR 10, spleen): 5,305 RLU/20 μl lysate
Luciferase activity spleen (WR 10, spleen): 446,650 RLU/organ
Luciferase activity heart (WR 20): 4,783 RLU/organ
Luciferase activity kidney (WR 20): 17,583 RLU/organ
Luciferase activity liver (WR 20): 1,003,125 RLU/organ
Luciferase activity lung (WR 20): 689,475 RLU/organ
Luciferase activity spleen (WR 20, spleen): 2,479,217 RLU/organ
Luciferase RLU/20 μl lysate spleen (WR (lipid to DNA) 2, spleen): 3,692 RLU/20 μl lysate
luciferase activity in spleen relative to DOTAP:Chol standard (weight ratio 20, spleen): 36 fold

CCCCCCCCCCCCCCCCCCN(CCCCCCCCCCCCCCCCCC)C(=O)CC[C@H](NC(=O)[C@H](CCCNCCCN)NCCCN)C(=O)O.O=C(O)C(F)(F)F.O=C(O)C(F)(F)F.O=C(O)C(F)(F)F.O=C(O)C(F)(F)F [GC-033]
Luciferase RLU/20 μl lysate heart (WR 2): 31 RLU/20 μl lysate
Luciferase RLU/20 μl lysate kidney (WR 2): 27 RLU/20 μl lysate
Luciferase RLU/20 μl lysate liver (WR 2): 29 RLU/20 μl lysate
Luciferase RLU/20 μl lysate lung (WR 2): 36 RLU/20 μl lysate
Luciferase RLU/20 μl lysate heart (WR 10): 40 RLU/20 μl lysate
Luciferase RLU/20 μl lysate kidney (WR 10): 41 RLU/20 μl lysate
Luciferase RLU/20 μl lysate liver (WR 10): 46 RLU/20 μl lysate
Luciferase RLU/20 μl lysate lung (WR 10): 42 RLU/20 μl lysate
Luciferase RLU/20 μl lysate spleen (WR 10, spleen): 50 RLU/20 μl lysate
Luciferase RLU/20 μl lysate spleen (WR (lipid to DNA) 2, spleen): 27 RLU/20 μl lysate

CCCCCCCCCCCCCCCCCCN(CCCCCCCCCCCCCCCCCC)C(=O)CNC(=O)[C@@H](N)CCCN.O=C(O)C(F)(F)F.O=C(O)C(F)(F)F [GC-035]
Luciferase RLU/20 μl lysate heart (WR 2): 54 RLU/20 μl lysate
Luciferase RLU/20 μl lysate kidney (WR 2): 46 RLU/20 μl lysate
Luciferase RLU/20 μl lysate liver (WR 2): 57 RLU/20 μl lysate
Luciferase RLU/20 μl lysate lung (WR 2): 57 RLU/20 μl lysate
Luciferase RLU/20 μl lysate heart (WR 10): 51 RLU/20 μl lysate
Luciferase RLU/20 μl lysate kidney (WR 10): 54 RLU/20 μl lysate
Luciferase RLU/20 μl lysate liver (WR 10): 50 RLU/20 μl lysate
Luciferase RLU/20 μl lysate lung (WR 10): 54 RLU/20 μl lysate
Luciferase RLU/20 μl lysate spleen (WR 10, spleen): 54 RLU/20 μl lysate
Luciferase RLU/20 μl lysate spleen (WR (lipid to DNA) 2, spleen): 70 RLU/20 μl lysate
